Assay results: ChEMBL document CHEMBL2331089, “Characterization, bioinformatic analysis and dithiocarbamate inhibition studies of two new α-carbonic anhydrases, CAH1 and CAH2, from the fruit fly Drosophila melanogaster” (Bioorg Med Chem, 2013)
Counter-ions that a name gives are not always drawn.

Legend:
[1] = target: T1, Carbonic anhydrase 2, isoform A (Drosophila melanogaster, UniProt Q9VTU8); test: Inhibition of Drosophila melanogaster recombinant carbonic anhydrase-2 expressed in Escherichia coli BL21 (DE3) preincubated for 15 mins by CO2 hydration stopped-flow assay
T1 sequence (Q9VTU8 whole entry): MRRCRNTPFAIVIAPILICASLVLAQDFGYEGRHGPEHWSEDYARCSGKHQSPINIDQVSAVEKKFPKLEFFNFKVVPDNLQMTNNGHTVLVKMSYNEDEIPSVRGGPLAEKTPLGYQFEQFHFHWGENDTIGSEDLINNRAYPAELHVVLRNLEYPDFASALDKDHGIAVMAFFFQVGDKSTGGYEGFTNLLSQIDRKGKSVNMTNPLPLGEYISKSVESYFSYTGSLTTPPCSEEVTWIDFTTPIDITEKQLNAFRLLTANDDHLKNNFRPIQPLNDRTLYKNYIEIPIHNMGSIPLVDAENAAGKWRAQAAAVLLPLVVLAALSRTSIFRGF

Carbonic anhydrase 1 = target: T2, Carbonic anhydrase 1 (Drosophila melanogaster, UniProt Q9V396); test: Inhibition of Drosophila melanogaster recombinant carbonic anhydrase-1 expressed in Escherichia coli BL21 (DE3) preincubated for 15 mins by CO2 hydration stopped-flow assay
T2 sequence (Q9V396 whole entry): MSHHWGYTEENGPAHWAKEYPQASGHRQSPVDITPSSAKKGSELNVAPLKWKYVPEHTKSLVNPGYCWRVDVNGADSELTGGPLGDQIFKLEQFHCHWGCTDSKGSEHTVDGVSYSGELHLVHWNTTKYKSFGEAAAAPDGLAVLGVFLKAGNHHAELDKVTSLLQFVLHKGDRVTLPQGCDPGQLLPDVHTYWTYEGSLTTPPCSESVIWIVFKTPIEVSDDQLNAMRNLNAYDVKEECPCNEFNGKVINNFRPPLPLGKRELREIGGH

[2] = Inhibition of Drosophila melanogaster recombinant beat carbonic anhydrase expressed in Escherichia coli BL21 (DE3) preincubated for 15 mins by CO2 hydration stopped-flow assay

| SMILES | Ki [1] [nM] | Ki (Carbonic anhydrase 1) [nM] | Ki [2] [nM] |
| --- | --- | --- | --- |
| S=C(S)NCc1ccncc1 | 58.8 | 35.1 |  |
| S=C(S)N1CCCC1 | 4.7 | 135 |  |
| CCCCN(CCCC)C(=S)S [DIBUTYLCARBAMODITHIOATE SODIUM SALT] | 0.5 | 17.1 |  |
| S=C(S)NCCN1CCCCC1 | 26.7 | 57.1 |  |
| OCCN(CCO)C(=S)S | 134 | 3.2 |  |
| CCCCN(CC)C(=S)S [ETHYLBUTYLCARBAMODITHIOATE SODIUM SALT] | 21.9 | 10.5 |  |
| CCC(C)NC(=S)S (racemic) | 0.9 | 325 |  |
| CCCCCCN(CCCCCC)C(=S)S [DIHEXYLCARBAMODITHIOATE SODIUM SALT] | 3.8 | 1.4 |  |
| CC(=O)Nc1nnc(S(N)(=O)=O)s1 [ACETAZOLAMIDE] |  |  | 49 |
| CC(C)CN(CC(C)C)C(=S)S [DIISOBUTYLCARBODITHIOIC ACID SODIUM SALT] | 0.9 | 20.2 |  |
| S=C(S)Nc1ccccc1 [TRIETHYLAMMONIUM PHENYLCARBAMODITHIOATE] | 33.9 | 21.4 |  |
| S=C(S)NCCN1CCOCC1 | 10.4 | 12.1 |  |
| CN(C(=S)S)c1ccccc1 [SODIUM METHYL(PHENYL)CARBAMODITHIOATE] | 5.9 | 67.1 |  |
| CCCN(CCC)C(=S)S [DIPROPYLCARBAMODITHIOATE SODIUM SALT] | 3.9 | 23.4 |  |
| CN(C)C(=S)S [SODIUM DIMETHYLCARBAMODITHIOATE] | 769 | 3460 |  |
| CCN(CC)C(=S)S [DITIOCARB SODIUM] | 654 | 2350 |  |
| S=C(S)N1CCN(C(=S)S)CC1 [PIPERAZINECARBAMODITHIOATE DISODIUM SALT] | 21.6 | 0.9 |  |
| S=C(S)Nc1cccs1 | 3.9 | 0.5 |  |
| S=C(S)N1CCOCC1 [MORPHOLINECARBAMODITHIOATE SODIUM SALT] | 0.8 | 13.8 |  |
| O=C(O)[C@@H]1CCCN1C(=S)S | 13.6 | 1.4 |  |
| S=C(S)NCc1ccccc1 [SODIUM BENZYLCARBAMODITHIOATE] | 213 | 0.8 |  |
| CN1CCN(NC(=S)S)CC1 | 13.8 | 0.9 |  |
| S=C(S)NCCN(CCNC(=S)S)CNC(=S)S | 1.5 | 134 |  |
| S=C(S)NN1CCOCC1 [POTASSIUM MORPHOLINOCARBAMODITHIOATE] | 20.7 | 13.1 |  |
| NCCCn1ccnc1.S=C(S)NCCCn1ccnc1 | 24.1 | 0.9 |  |
| CN(Cc1ccccc1)C(=S)S [SODIUM BENZYL(METHYL)CARBAMODITHIOATE] | 12.4 | 50.2 |  |
| O=C(O)CNC(=S)S | 76.5 | 123 |  |
